Assays:
Test in all cases: relative viability (nuclei count vs DMSO), 5 days (fraction); higher = more cells survive
[1] = compound: CCn1c(-c2nonc2N)nc2c(C#CC(C)(C)O)ncc(OC[C@H]3CCCNC3)c21 + Nc1ncn([C@H]2C[C@H](O)[C@@H](CO)O2)c(=O)n1 [Decitabine] (partner 2 µM)
Outline: (§1)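 Five library-drug doses in √10 steps were combined with a fixed anchor-drug dose, or a single drug was given alone, by pin tool to lung cancer cell lines in 1536-well plates the day after seeding. Nuclei were stained and counted after 5 days. Relative viability is the nuclei count in treated wells over that in vehicle wells, taken as the median of duplicate plates.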

[2] = compound: CCOC1=CC=CC=C1N=NC2=C(NN(C2=O)C3=NC(=CS3)C4=CC=CC=C4)C [BAM7] + CCNC(=O)c1noc(-c2cc(C(C)C)c(O)cc2O)c1-c1ccc(CN2CCOCC2)cc1 [Luminespib] (partner 0.01 µM)
Outline: as §1

[3] = compound: CCn1c(-c2nonc2N)nc2c(C#CC(C)(C)O)ncc(OC[C@H]3CCCNC3)c21 + C[C@]1(O)C[C@@H](c2nc(-c3ccc4ccc(-c5ccccc5)nc4c3)c3c(N)nccn32)C1 [Linsitinib] (partner 1 µM)
Outline: as §1

[4] = compound: CCOC1=CC=CC=C1N=NC2=C(NN(C2=O)C3=NC(=CS3)C4=CC=CC=C4)C [BAM7] + O=C(c1cc(Cc2n[nH]c(=O)c3ccccc23)ccc1F)N1CCN(C(=O)C2CC2)CC1 [Olaparib] (partner 8 µM)
Outline: as §1

Cell Line | relative viability ([1]; first compound 0.01 µM) | relative viability ([1]; first compound 0.03162 µM) | relative viability ([1]; first compound 0.1 µM) | relative viability ([1]; first compound 0.3162 µM) | relative viability ([1]; first compound 1 µM) | relative viability ([2]; first compound 0.5 µM) | relative viability ([2]; first compound 5 µM) | relative viability ([2]; first compound 15.81 µM) | relative viability ([2]; first compound 50 µM) | relative viability ([3]; first compound 0.01 µM) | relative viability ([3]; first compound 0.03162 µM) | relative viability ([3]; first compound 0.1 µM) | relative viability ([3]; first compound 0.3162 µM) | relative viability ([3]; first compound 1 µM) | relative viability ([4]; first compound 0.5 µM) | relative viability ([4]; first compound 5 µM) | relative viability ([4]; first compound 15.81 µM) | relative viability ([4]; first compound 50 µM)
HCC-44 | 0.957 | 0.888 | 0.902 | 0.968 | 0.985 | 1.38 | 1.07 | 1.03 | 0.957 | 0.608 | 0.692 | 0.636 | 0.652 | 0.71 | 0.986 | 0.952 | 0.883 | 0.987
HCC-78 | 0.628 | 0.627 | 0.674 | 0.709 | 0.543 |  |  |  |  | 0.502 | 0.496 | 0.5 | 0.424 | 0.546 | 1.02 | 0.759 | 0.631 | 0.815
HCC-366 | 0.342 | 0.34 | 0.361 | 0.302 | 0.335 |  |  |  |  | 0.598 | 0.761 | 0.498 | 0.522 | 0.668 | 0.328 | 0.263 | 0.226 | 0.307
HCC-827 | 0.348 | 0.319 | 0.331 | 0.308 | 0.308 | 0.582 | 0.646 | 0.672 | 0.651 | 0.879 | 1.03 | 0.97 | 0.942 | 0.962 | 0.0377 | 0.627 | 0.62 | 0.649
HOP-62 | 0.18 | 0.22 | 0.246 | 0.193 | 0.226 | 0.89 | 0.987 | 0.911 | 0.844 | 1.07 | 0.942 | 1.03 | 0.921 | 0.878 | 0.517 | 0.33 | 0.449 | 0.518
IA-LM |  |  |  |  |  |  |  |  |  | 0.62 | 0.554 | 0.658 | 0.518 | 0.464 | 0.912 | 0.794 | 0.797 | 0.775
LC-2-ad | 0.776 | 0.824 | 0.875 | 0.705 | 0.7 | 1.06 | 1.26 | 0.951 | 1.03 | 0.878 | 0.919 | 0.836 | 0.849 | 0.875 | 0.676 | 0.633 | 0.634 | 0.646
LCLC-97TM1 | 0.2 | 0.226 | 0.268 | 0.235 | 0.268 | 0.848 | 0.803 | 0.825 | 1.01 |  | 0.159 | 0.169 | 0.229 | 0.21 | 0.362 | 0.472 |  | 0.432
LCLC-103H | 0.726 | 0.797 | 0.737 | 0.716 | 0.781 | 0.837 | 0.919 | 0.946 | 0.979 | 1.13 | 1.09 | 1.01 | 1.04 | 1.15 | 0.77 | 0.795 | 0.72 | 0.686
NCI-H522 | 0.656 | 0.675 | 0.682 | 0.679 | 0.716 | 1.2 | 1.2 | 1.11 | 0.993 |  |  |  |  |  | 0.725 | 0.585 | 0.61 | 0.643
NCI-H1299 |  |  |  |  |  |  |  |  |  | 0.95 | 1.06 | 0.948 | 0.941 | 1.02 | 0.961 | 1.02 | 0.981 | 0.923
NCI-H1563 |  |  |  |  |  | 0.508 | 0.518 | 0.562 | 0.564 | 1.18 | 1.07 | 1.15 | 1.08 | 0.96 |  |  |  | 
NCI-H1623 |  |  |  |  |  | 0.491 | 0.595 | 0.526 | 0.6 |  |  |  |  |  |  |  |  | 
NCI-H1648 | 0.565 | 0.482 | 0.464 | 0.491 | 0.498 |  |  |  |  |  |  |  |  |  | 0.772 | 0.799 | 0.322 | 0.558
NCI-H1650 | 0.355 | 0.455 | 0.522 | 0.208 | 0.442 | 0.171 | 0.191 | 0.19 | 0.2 |  |  |  |  |  | 0.734 | 0.729 | 0.737 | 0.737
NCI-H1703 |  |  |  |  |  |  |  |  |  | 0.939 | 0.836 | 0.594 | 0.449 | 0.358 | 0.497 | 0.454 | 0.357 | 0.62
NCI-H2170 | 0.503 | 0.445 | 0.475 | 0.454 | 0.53 | 0.752 | 0.686 | 0.544 | 0.624 |  |  |  |  |  | 0.497 | 0.447 | 0.439 | 0.476
NCI-H2228 |  |  |  |  |  | 0.136 | 0.116 | 0.145 | 0.153 | 0.682 | 0.65 | 0.645 | 0.585 | 0.475 | 0.802 | 0.932 | 0.547 | 0.585
NCI-H2342 | 0.747 | 0.692 | 0.773 | 0.667 | 0.625 | 0.691 | 0.726 | 0.768 | 0.735 |  |  |  |  |  | 0.49 | 0.46 | 0.347 | 0.341
SW 900 | 0.425 | 0.442 | 0.502 | 0.484 | 0.42 | 0.19 | 0.208 | 0.158 | 0.185 |  |  |  |  |  |  | 0.847 |  | 0.786

Source: the supplement of paper PMC10307832
